Values joined by “and” are separate entries in the source; they are usually repeats but may differ in a detail not shown here. Identical values can stand only once. After the bases stand the sugars from the 5' end (letter, count) and the backbone: PS all phosphorothioate, else s phosphorothioate and o phosphodiester by linkage. Methylation of C is not given here. e = 2'-O-(2-methoxyethyl) (MOE); l = locked nucleic acid (LNA); d = 2'-deoxy (DNA)
Tests used:
DGAT2 = conditions: ASO
SNHG14 = conditions: ASO, Human Neuronal Cell

Row | Sequence | target mRNA inhibition (SNHG14; 7.5 µM) | also measured
1 | AAACCCTCGACTGAGTGTGA (sugars e5 d10 e5, PS) | – | target mRNA inhibition (DGAT2; HepG2, 0.12 µM): 37%
2 | AAATCCATGTCAGAGAGGCT (sugars e5 d10 e5, PS) | – | target mRNA inhibition (DGAT2; HepG2, 2.5 µM): 64%; target mRNA inhibition (DGAT2; HepG2, 10 µM): 92%
3 | AACAGGGTACAACTCTCTTG (sugars e5 d10 e5, PS) | – | target mRNA inhibition (DGAT2; HepG2, 2.5 µM): 61%; target mRNA inhibition (DGAT2; HepG2, 10 µM): 92%
4 | AACCACTGTTGCTGAGCTCA (sugars e5 d10 e5, PS) | – | target mRNA inhibition (DGAT2; HepG2, 2.5 µM): 74% and 72%; target mRNA inhibition (DGAT2; HepG2, 10 µM): 88%
5 | TTACTCTTAGCAACCT (sugars l4 d10 l2, PS) | – | target mRNA inhibition (SNHG14; 0.2 µM): 58%; target mRNA inhibition (SNHG14; 1 µM): 54%
6 | TTATACCCTTTCCAAT (sugars l2 d10 l4, PS) | – | target mRNA inhibition (SNHG14; 0.2 µM): 40%; target mRNA inhibition (SNHG14; 1 µM): 60%
7 | TTATACCTTTCTTTAACCCT (sugars ldddldddddddddddldll, PS) | 57% | –
8 | TTATAGCCATTCTATCT (sugars l1 d10 l2 d2 l2, PS) | 48% | –
9 | TTATAGCCATTCTATCT (sugars l2 d9 l1 d3 l2, PS) | 52% | –
10 | TTATAGCCATTCTATCT (sugars l3 d8 l1 d3 l2, PS) | 58% | –
11 | TTATAGCCATTCTATCT (sugars l3 d9 l1 d1 l3, PS) | 54% | –
12 | TTATAGCCATTCTATCT (sugars l4 d7 l1 d3 l2, PS) | 44% | –
13 | TTATAGCCATTCTATCT (sugars ldddlddddddldddll, PS) | 42% | –
14 | TTATAGCCATTCTATCT (sugars lddlddddddddlldll, PS) | 25% | –
15 | TTATAGCCATTCTATCT (sugars llldlddddddldddll, PS) | 52% | –
16 | TTATTAACCACCTTAA (sugars l3 d10 l3, PS) | – | target mRNA inhibition (SNHG14; 0.2 µM): 21%; target mRNA inhibition (SNHG14; 1 µM): 49%
17 | TTCACCTAATAGCACCA (sugars l2 d11 l4, PS) | – | target mRNA inhibition (SNHG14; 0.2 µM): 54%; target mRNA inhibition (SNHG14; 1 µM): 64%
18 | TTCCATTTATTTCCATTTAT (sugars ldldllddddddddldddll, PS) | 59% | –
19 | TTCCCTTTGATAACAT (sugars l4 d10 l2, PS) | – | target mRNA inhibition (SNHG14; 0.2 µM): 9%; target mRNA inhibition (SNHG14; 1 µM): 34%
20 | TTCCTCTGCTTATAACT (sugars l3 d12 l2, PS) | – | target mRNA inhibition (SNHG14; 0.2 µM): 50%; target mRNA inhibition (SNHG14; 1 µM): 61%
21 | TTCCTTTCATTAACATTT (sugars l4 d12 l2, PS) | – | target mRNA inhibition (SNHG14; 0.2 µM): 37%; target mRNA inhibition (SNHG14; 1 µM): 55%
22 | TTCTACTATACTTTCC (sugars l4 d10 l2, PS) | – | target mRNA inhibition (SNHG14; 0.2 µM): 55%; target mRNA inhibition (SNHG14; 1 µM): 69%

Row | Sequence | target mRNA inhibition (SNHG14; 7.5 µM) | also measured
23 | TTCTACTATACTTTCCTCT (sugars ldddddddddddlddldll, PS) | 54% | –
24 | TTCTACTATACTTTCCTCT (sugars ldddldddddddldlddll, PS) | 58% | –
25 | TTCTGTATACACCATCC (sugars l1 d1 l1 d11 l3, PS) | 58% | –
26 | TTCTGTATACACCATCC (sugars l1 d3 l1 d9 l3, PS) | 64% | –
27 | TTCTGTATACACCATCC (sugars l1 d10 l1 d3 l2, PS) | 51% | –
28 | TTCTGTATACACCATCC (sugars l1 d13 l3, PS) | 59% | –
29 | TTCTGTATACACCATCC (sugars l2 d11 l1 d1 l2, PS) | 56% | –
30 | TTCTGTATACACCATCCC (sugars l1 d12 l1 d2 l2, PS) | 53% | –
31 | TTCTGTATACACCATCCC (sugars ldddlddddddddlddll, PS) | 54% | –
32 | TTCTTAGTCACACACA (sugars l4 d10 l2, PS) | – | target mRNA inhibition (SNHG14; 0.2 µM): -3%; target mRNA inhibition (SNHG14; 1 µM): -43%
33 | TTGATTCAATTCCCTTA (sugars ldllddddddddlddll, PS) | 62% | –
34 | TTGATTCAATTCCCTTA (sugars lldldddddddldldll, PS) | 59% | –
35 | TTGTCTCTAATCCTATT (sugars l2 d11 l4, PS) | – | target mRNA inhibition (SNHG14; 0.2 µM): 24%; target mRNA inhibition (SNHG14; 1 µM): 52%
36 | TTTAACCTTGCTTATA (sugars l2 d10 l4, PS) | – | target mRNA inhibition (SNHG14; 0.2 µM): 23%; target mRNA inhibition (SNHG14; 1 µM): 25%
37 | TTTACACTTAATTATACTTC (sugars ldddlldddddddllddlll, PS) | 60% | –
38 | TTTACACTTAATTATACTTC (sugars lllddldddddddlldllll, PS) | 15% | –
39 | TTTACATTCCCATCATC (sugars l2 d11 l4, PS) | – | target mRNA inhibition (SNHG14; 0.2 µM): 57%; target mRNA inhibition (SNHG14; 1 µM): 66%
40 | TTTATACCCTTTCCAA (sugars l2 d10 l4, PS) | – | target mRNA inhibition (SNHG14; 0.2 µM): 55%; target mRNA inhibition (SNHG14; 1 µM): 63%
41 | TTTATACCTTTCTTTAACCC (sugars l1 d15 l1 d1 l2, PS) | 36% | –
42 | TTTATACCTTTCTTTAACCC (sugars lddddddddddddldlddll, PS) | 52% | –
43 | TTTATACCTTTCTTTAACCC (sugars lddddlddddddddddldll, PS) | 63% | –
44 | TTTATCAATATCTTCTCA (sugars l1 d2 l1 d10 l4, PS) | 53% | –

Row | Sequence | target mRNA inhibition (SNHG14; 7.5 µM) | also measured
45 | TTTATCAATATCTTCTCA (sugars lddlllddddddlddlll, PS) | 60% | –
46 | TTTATCAATATCTTCTCAC (sugars l1 d4 l1 d9 l4, PS) | 52% | –
47 | TTTATCAATATCTTCTCACT (sugars lddlddldddddddddldll, PS) | 58% | –
48 | TTTATCTATTTAATTTACA (sugars l4 d13 l2, PS) | – | target mRNA inhibition (SNHG14; 0.2 µM): 7%; target mRNA inhibition (SNHG14; 1 µM): 6%
49 | TTTATTTCCATTTATTTTC (sugars l5 d7 l1 d3 l3, PS) | 55% | –
50 | TTTATTTCCATTTATTTTC (sugars llddlldddddddldllll, PS) | 66% | –
51 | TTTCCAATGAATCTAT (sugars l2 d10 l4, PS) | – | target mRNA inhibition (SNHG14; 0.2 µM): 21%; target mRNA inhibition (SNHG14; 1 µM): 36%
52 | TTTCCATCTACTATTA (sugars l4 d10 l2, PS) | – | target mRNA inhibition (SNHG14; 0.2 µM): 60%; target mRNA inhibition (SNHG14; 1 µM): 67%
53 | TTTCCATTTATTTCCATTTA (sugars lddddldddddddddlddll, PS) | 44% | –
54 | TTTCCATTTATTTCCATTTA (sugars lddddldddddddlddldll, PS) | 58% | –
55 | TTTGACATTCCATCTC (sugars l3 d10 l3, PS) | – | target mRNA inhibition (SNHG14; 0.2 µM): 56%; target mRNA inhibition (SNHG14; 1 µM): 59%
56 | TTTTAACCAGAGTGGCATC (sugars l4 d13 l2, PS) | 45% | –
57 | TTTTTATACCTTTCTTTAAC (sugars l1 d12 l1 d2 l4, PS) | 43% | –
58 | TTTTTATACCTTTCTTTAAC (sugars l2 d12 l3 d1 l2, PS) | 62% | –
59 | TTTTTATACCTTTCTTTAAC (sugars lllldddddddddldlddll, PS) | 69% | –
60 | TTTTTTCTTACTATCTTCAA (sugars l1 d4 l1 d10 l4, PS) | 55% | –
61 | TTTTTTCTTACTATCTTCAA (sugars ldllldldddddddddldll, PS) | 58% | –
62 | TTTTTTCTTACTATCTTCAA (sugars llddldldddddddldldll, PS) | 60% | –
63 | TTTTTTCTTACTATCTTCAA (sugars lldlldlddddddddlddll, PS) | 58% | –
64 | TTTTTTTCTTACTATCTTCA (sugars l1 d2 l2 d13 l2, PS) | 43% | –
65 | TTTTTTTCTTACTATCTTCA (sugars l3 d15 l2, PS) | 28% | –
66 | TTTTTTTCTTACTATCTTCA (sugars ldlddddddddddlddddll, PS) | 46% | –
